Experimental data reported in article PMC12843137, “Fine-Tuning Side Chain Substitutions: Impacts on the Lipophilicity–Solubility–Permeability Interplay in Macrocyclic Peptides” (Marine Drugs, 2025).
Like-named read-outs stand apart in the source and are kept apart here.

Assay: Caco-2 cell permeability study
Assay type: in vitro ADME
Details: human; for efflux ratio at 2 h, 5 µM: Caco-2, pH 7.4; for recovery at 2 h, 5 μM: Caco-2, pH 7.4, Caco-2, 5 μM; for Papp A→B at 2 h, 5 µM / Papp B→A at 2 h, 5 µM: pH 7.4, Caco-2, 5 μM; for Papp A→B at 2 h, 5 µM: apical to basolateral; for Papp B→A at 2 h, 5 µM: basolateral to apical
Description: One of the physicochemical quantities that mirrors the interaction of a compound with the cell membrane is permeability. Traditionally, measuring permeability with the PAMPA model provides estimates of passive permeability across a model membrane. […] Therefore, we measure the cell permeability of the six compounds using Caco-2 cells, so that the apical to basolateral (A to B) and basolateral to apical (B to A) permeabilities, and thereby the efflux ratio, can be determined. Three commercial drugs (Table 2) are used as standard compounds to establish and validate our in-house assay.
For Caco-2 cells (originally obtained from the American Type Culture Collection; ATCC, Manassas, VA, USA), 50 μL and […] of cell culture medium are added to each well of the Transwell insert and reservoir, respectively. And then the HTS transwell plates are incubated at 37 °C, 5% CO2 for 1 h before cell seeding. Caco-2 cells are diluted to 6.86 × 10^5 cells/mL with culture medium and 50 μL of cell suspension is dispensed into the filter well of the 96-well HTS Transwell plate. Cells are cultivated for 14–18 days in a cell culture incubator at 37 °C, 5% CO2, 95% relative humidity. Cell culture medium is replaced every other day, beginning no later than 24 h after initial plating. Stock solutions of the test compounds are prepared at a concentration of 10 mM in DMSO. […] Detailed assay procedures are provided in the SI. […]
dilution factor is changed according to the log D value and the LC-MS signal response. The samples are evaluated by LC-MS/MS analysis. All experiments are performed in duplicates.
5. Caco-2 Cell Permeability Assay
The Caco-2 plate is removed from the incubator and washed twice with pre-warmed HBSS (10 mM HEPES, pH 7.4), and then incubated at 37 °C for 30 minutes. The stock solutions of control compounds and test compounds are diluted in DMSO to get 1 mM solutions and then diluted with HBSS (10 mM HEPES, pH 7.4) get 5 μM working solutions. The final concentration of DMSO in the incubation system is 0.5%. To determine the rate of drug transport in the apical to basolateral direction. 125 μL of 5 μM working solution of control compounds and test compounds are added to the Transwell insert (apical compartment), and transfer 50 μL sample (D0 sample) immediately from the apical compartment to a new 96-well plate. Fill the wells in the receiver plate (basolateral compartment) with 235 μL of HBSS (10 mM HEPES, pH 7.4). To determine the rate of drug transport in the basolateral to apical direction. 285 μL of 5 μM working solution of control compounds and test compounds are to the receiver plate wells (basolateral compartment), and transfer 50 μL sample (D0 sample) immediately from the basolateral compartment to a new 96-well plate.
Fill the wells in the Transwell insert (apical compartment) with 75 μL of HBSS (10 mM HEPES, pH 7.4).
The assay is performed in duplicate. The plates are incubated at 37 °C for 2 h. At the end of the incubation, 50 μL samples from donor sides (apical compartment for Ap→Bl flux, and basolateral compartment for Bl→Ap) and receiver sides (basolateral compartment for Ap→Bl flux, and apical compartment for Bl→Ap) are transferred to wells of a new 96-well plate, followed by the addition of 4 volume of cold acetonitrile containing appropriate internal standards (IS). Samples are Vortexed for 5 minutes and then centrifuged at 3,220 g for 30 minutes. An aliquot of 100 µL of the supernatant is mixed with an appropriate volume of ultra-pure water before LC-MS/MS analysis (see SI Bioanalytical Method for Caco-2 Cell Permeability […]
Papp (A to B) is greater than the Papp (A to B) of minoxidil it is assigned as high permeability. If the Papp (A to B) is […]

[1] = read-out: Mean % Solution Recovery A to B
[2] = read-out: Mean % Solution Recovery B to A

SMILES | efflux ratio at 2 h, 5 µM | recovery at 2 h, 5 μM [1] [%] | recovery at 2 h, 5 μM [2] [%] | Papp A→B at 2 h, 5 µM [×10⁻⁶ cm/s] | Papp B→A at 2 h, 5 µM [×10⁻⁶ cm/s]
C[C@@H]1C(=O)[C@](C)(O)C(=O)NCC(=O)N[C@H](CN2CCN(C)CC2)/C=C/C(=O)N(C)CC(=O)O[C@H]1CCCCCc1cn(CCCCCCCNc2cccc3c2CN(C2CCC(=O)NC2=O)C3=O)nn1 (stereo partly shown) [Compound 40] | > 10.8 | < 89.4 | 50.4 | < 0.0116 | 0.13
CCCCOc1ccc(-c2ccc(-c3ccc(Cn4cc(CCCCC[C@H]5OC(=O)CN(C)C(=O)/C=C/[C@@H](CN6CCN(C)CC6)NC(=O)CNC(=O)[C@@](C)(O)C(=O)[C@H]5C)nn4)cc3)cc2)cc1 [Compound 29] | – | < 92.9 | < 71.1 | < 0.00798 | < 0.00266
CCCCCCCCCCCCCC1OC(=O)CN(C)C(=O)C=CC(CN2CCN(C)CC2)NC(=O)CNC(=O)C(C)(O)C(=O)C1C (stereo not shown) [BE-NMP] | > 65.3 | < 23.5 | 8.99 | < 0.0144 | 0.942
CC1C(=O)C(C)(O)C(=O)NCC(=O)NC(CN2CCN(C)CC2)C=CC(=O)N(C)CC(=O)OC1CCCCc1cn(CCCCCCCCNC(=N)N)nn1 (stereo not shown) [Compound 31] | 2.57 | 109 | 70.4 | 0.0348 | 0.0894
